Assay results as given in US4122202A, “Amino-3H-isobenzofuranones N-substitutes and their therapeutic application” (Societe Cortial, priority 1975, dated 1978).
Where two headings read alike, the source gives them in different places.

Columns and labels:
[1] = Oral toxicity in mice (LDO, LD50); assay type: in vivo; conditions: mouse, in vivo; for LD50 at 336 h: gummy julep (No. 1 and 13 in Tween), 2 weeks observation
Description: (§1) This toxicity is estimated by the calculation of the lethal dose of 50 (LD 50) which determines the fatal dose of the substance for 50% of the animals tested. This determination was effected in accordance with a modification of the method by Litchfield and Wilcoxon (J. Pharmacol. Exp. Therap. 1949, 96, 99-113).
(§2) Swiss mice without specific pathogenic organisms were kept in air conditioned rooms 24 to 48 hours before the start of the tests. They were divided into batches of 5.male. and 5.female.. With the animals unfed for 24 hours, the substances were intragastically administered in suspension in 2% Tween 80 or in 6% gummy julep in a volume equivalent to 0.1 ml per 10 g of the weight of the animal.
(§3) They remained under observation for two weeks before being killed and subjected to an autopsy.
(§4) All products were administered in gummy julep except No. 1 and No. 13 which were administered in Tween. The analgesic activity were determined in mice by utilizing as a nociceptive agent, phenylbenzoquinone (PBQ) (modification of the method by Siegmund and co-workers Proc. Soc. Exp. Biol. Med. 1957, 95, 729-31). The process consists of seeking a possible protection for the mouse vis-a-vis abdominal twisting and stretching of the hind legs induced by the parental injection of PBQ. 25 minutes after having orally administered the products to be tested in suspension in 2% Tween 80 or in 6% gummy julep, the PBQ solution was injected and the mice were observed after 5 minutes during the following 5 minutes. For certain products, AD 50 is presented as a measure of activity.

rats [2] = assay: Ulcerous activity (modified method of Colot); assay type: in vivo, female EOPS rats; conditions: 250 mg/kg oral daily
Description: Ulcerous activity was determined according to a modification of the method by Colot (Technical notions of general pharmacology, 1972) in the case of femal EOPS rats of approximately 150 g. The animals were left without absolutely any food, while the test products were orally administered on a daily basis in suspension in 2% Tween at a volume of 0.5 ml/100 g. The animals were killed under chloroform and the stomachs were removed. Ulcerous activity was established by means of an index taking into account the degree of ulceration and the percentage of animals effected.
In the table given below, a comparison is shown between the results obtained with niflumic acid and product No. 1.

mice [3] = assay: Analgesic activity: protection against abdominal twisting induced by phenylbenzoquinone (PBQ); assay type: in vivo; conditions: for ED50: Mus musculus, oral, read-out: AD 50 (the source's name)
Description: as §4, with “activity. […]” for “activity.”

rats [4] = assay: Anti-inflammatory activity: carragenic test (carragenine-induced edema of the hind leg); assay type: in vivo, male rats; conditions: for ED50: Rattus norvegicus, oral, read-out: ED 50
Description: All products were administered in gummy julep except No. 1 and No. 13 which were administered in suspension in Tween. The anti-inflammatory activity was determined by the carragenic test with male rats. Inflammation was induced by the injection of 0.1 ml of a 0.5% suspension of carragenine in a physiological serum into the muscular fasciculus of the metatarsal region of the hind leg of the animal. The substance to be tested was orally administered simultaneously with the carragenine. The edema was measured by phethysmography 1, 2, 3, 4, 5 and 6 hours after the administration of the carragenine.
**50 mg/kg No. 13 which were administered in suspension in Tween.

mice [5] = assay: Oral toxicity in mice (LDO, LD50); assay type: in vivo; conditions: gummy julep (No. 1 and 13 in Tween), 2 weeks observation
Description: as §1, §2, §3, §4

SMILES | LD50 at 336 h [1] | ED50 (mice [3]) | % activity (mice [3]; 200 mg/kg oral) | % activity (inhibition of edema) (rats [4]; 200 mg/kg oral, 4H) | % activity (inhibition of edema) (rats [4]; 400 mg/kg oral, 4H) | LDO (maximum dose which did not lead to any mortality) (mice [5]) | further results
O=C1OC(Nc2ccc3c(c2)OCO3)c2ccccc21 (stereo not shown) [Product 1] | ~2600 mg/kg | – | – | – | – | – | IA: Acute ulceration index (rats [2]; 1 day): 0; IC: Ulceration index on the way of cicatrization (rats [2]; 1 day): 1.5; IA: Acute ulceration index (rats [2]; 3 days): 5; IC: Ulceration index on the way of cicatrization (rats [2]; 3 days): 22
CCN(c1ccc2c(c1)OCO2)C1OC(=O)c2ccccc21 (stereo not shown) [Product 12] | ~590 mg/kg | 45 mg/kg | – | – | – | – | % activity (mice [3]; 50 mg/kg oral): 61%; % activity (inhibition of edema) (rats [4]; 25 mg/kg (footnote *) oral, 2H): 33%; % activity (inhibition of edema) (rats [4]; 25 mg/kg (footnote *) oral, 4H): 17%; % activity (inhibition of edema) (rats [4]; 50 mg/kg oral, 2H): 43%; % activity (inhibition of edema) (rats [4]; 50 mg/kg oral, 4H): 28%
CCCC1(CCC)Oc2ccc(NC3OC(=O)c4ccccc43)cc2O1 (stereo not shown) [Product 4] | ~2000 mg/kg | – | 20% | 23% | 13% | – | –
CCC1(CC)Oc2ccc(NC3OC(=O)c4ccccc43)cc2O1 (stereo not shown) [Product 2] | ~2000 mg/kg | – | 29% | – | 20% | ~ 1500 mg/kg | –
CC(=O)OCC1COc2ccc(NC3OC(=O)c4ccccc43)cc2O1 (stereo not shown) [Product 19] | – | 500 mg/kg | – | – | – | > 2000 mg/kg | % activity (mice [3]; 300 mg/kg oral): 21%; % activity (inhibition of edema) (rats [4]; 150 mg/kg oral, 2H): 21%; % activity (inhibition of edema) (rats [4]; 150 mg/kg oral, 4H): 23%; % activity (inhibition of edema) (rats [4]; 300 mg/kg oral, 2H): 26%; % activity (inhibition of edema) (rats [4]; 300 mg/kg oral, 4H): 27%
O=C1OC(Nc2ccc3c(c2)OCC(CO)O3)c2ccccc21 (stereo not shown) [Product 17] | – | 420 mg/kg | 28% | – | – | > 2000 mg/kg | % activity (inhibition of edema) (rats [4]; 150 mg/kg oral, 2H): 27%; % activity (inhibition of edema) (rats [4]; 150 mg/kg oral, 4H): 17%; % activity (inhibition of edema) (rats [4]; 300 mg/kg oral, 2H): 29%; % activity (inhibition of edema) (rats [4]; 300 mg/kg oral, 4H): 8%
COc1ccc2c(c1OC)C(=O)OC2Nc1ccc2c(c1)OCO2 (stereo not shown) [Product 8] | ~1000 mg/kg | 180 mg/kg | 54% | 66% | 48% | 750 to 1000 mg/kg | % activity (inhibition of edema) (rats [4]; 200 mg/kg oral, 2H): 68%; % activity (inhibition of edema) (rats [4]; 400 mg/kg oral, 2H): 74%; ED50 (rats [4]; 2H): 180 mg/kg; ED50 (rats [4]; 4H): 230 mg/kg
COc1ccc2c(c1OC)C(=O)OC2Nc1ccc2c(c1)OCCO2 (stereo not shown) [Product 14] | – | 150 mg/kg | 73% | 33% | 63% | > 2000 mg/kg | % activity (inhibition of edema) (rats [4]; 200 mg/kg oral, 2H): 63%; % activity (inhibition of edema) (rats [4]; 400 mg/kg oral, 2H): 79%; ED50 (rats [4]; 2H): 175 mg/kg; ED50 (rats [4]; 4H): 260 mg/kg
O=C1OC(Nc2ccc3c(c2)OCCO3)c2ccccc21 (stereo not shown) [Product 13] | ≥ 3000 mg/kg | 100 mg/kg | – | – | – | ≥ 1000 mg/kg | % activity (mice [3]; 150 mg/kg oral): 73%; % activity (inhibition of edema) (rats [4]; 150 mg/kg oral, 2H): 77%; % activity (inhibition of edema) (rats [4]; 150 mg/kg oral, 4H): 50%; % activity (inhibition of edema) (rats [4]; 300 mg/kg oral, 2H): 76%; % activity (inhibition of edema) (rats [4]; 300 mg/kg oral, 4H): 55%; ED50 (rats [4]; 2H): 230 mg/kg; ED50 (rats [4]; 4H): 210 mg/kg
CC1(C)Oc2ccc(NC3OC(=O)c4ccccc43)cc2O1 (stereo not shown) [Product 7] | – | 80 mg/kg | 81% | 20% | 25% | ~ 1000 mg/kg | mortality at 336 h ([1]; at 2000 mg/kg, read-out: deaths (LD50 column)): 70%; % activity (inhibition of edema) (rats [4]; 200 mg/kg oral, 2H): 19%; % activity (inhibition of edema) (rats [4]; 400 mg/kg oral, 2H): 23%
O=C1OC(Nc2ccc3c(c2)OC2(CCCCC2)O3)c2ccccc21 (stereo not shown) [Product 3] | ≥ 2000 mg/kg | – | 29% | 20% | 21% | 1000 to 2000 mg/kg | –
